We go through 52 molecules from ChEMBL document CHEMBL4130390, “Crystal structure of Porphyromonas gingivalis dipeptidyl peptidase 4 and structure-activity relationships based on inhibitor profiling” (Eur J Med Chem, 2017).

A value given as a limit tells only on which side of the number the result lay.

In assay [1] the target is Dipeptidyl peptidase IV (Porphyromonas gingivalis) (UniProt O31048). The assay can be described thus: Inhibition of Porphyromonas gingivalis N-terminal His-tagged DPP4 expressed in Escherichia coli at 10 uM using Gly-Pro-p-nitroanilide as substrate relative to control.
Chain of Dipeptidyl peptidase IV (Porphyromonas gingivalis) (O31048 20-723 limits assumed): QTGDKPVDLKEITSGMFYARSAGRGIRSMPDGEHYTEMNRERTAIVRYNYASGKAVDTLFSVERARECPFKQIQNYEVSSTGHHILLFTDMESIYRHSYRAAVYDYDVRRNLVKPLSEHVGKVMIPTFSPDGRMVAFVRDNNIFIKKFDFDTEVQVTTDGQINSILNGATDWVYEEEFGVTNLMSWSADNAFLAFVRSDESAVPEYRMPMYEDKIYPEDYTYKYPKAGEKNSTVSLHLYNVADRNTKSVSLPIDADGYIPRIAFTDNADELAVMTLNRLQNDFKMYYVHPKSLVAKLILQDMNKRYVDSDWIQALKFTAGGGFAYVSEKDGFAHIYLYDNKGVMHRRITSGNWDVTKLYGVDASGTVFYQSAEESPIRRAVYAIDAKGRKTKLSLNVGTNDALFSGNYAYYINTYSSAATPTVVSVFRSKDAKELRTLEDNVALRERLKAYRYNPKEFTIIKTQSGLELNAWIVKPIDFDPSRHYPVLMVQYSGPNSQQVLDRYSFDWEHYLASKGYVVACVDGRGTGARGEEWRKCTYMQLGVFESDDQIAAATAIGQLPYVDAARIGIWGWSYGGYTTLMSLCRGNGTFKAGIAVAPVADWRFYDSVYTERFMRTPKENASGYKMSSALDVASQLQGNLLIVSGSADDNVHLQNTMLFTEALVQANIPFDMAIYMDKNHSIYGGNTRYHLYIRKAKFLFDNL
The target is the same in assay [2]. The assay can be described thus: Inhibition of Porphyromonas gingivalis N-terminal His-tagged DPP4 expressed in Escherichia coli at 100 uM using Gly-Pro-p-nitroanilide as substrate relative to control.
Another assay deals with Dipeptidyl peptidase IV (Porphyromonas gingivalis, UniProt O31048). The assay is described as follows: Inhibition of Porphyromonas gingivalis N-terminal His-tagged DPP4 expressed in Escherichia coli using Gly-Pro-p-nitroanilide as substrate.
Chain of Dipeptidyl peptidase IV (O31048 20-723 limits assumed): as above
Assay [3] can be described thus: Selectivity index, ratio of IC50 for human DPP4 to IC50 for Porphyromonas gingivalis N-terminal His-tagged DPP4 expressed in Escherichia coli.

Regarding `C=C1CCN(C(=O)C(N)C(C)CC)C1` (stereo not drawn), the inhibition in assay [1] was greater than 50%; in assay [2], less than 50%. On Dipeptidyl peptidase IV, the IC50 result is listed as “IC50 10-100 uM”.
Take `CC1CC(N=[N+]=[N-])CN1C(=O)C(N)CCC(=O)N1CCN(Cc2ccc(F)cc2)CC1` (stereo not drawn): the inhibition in assay [1] is greater than 50%; in assay [2], less than 50%. For the same molecule, the IC50 at Dipeptidyl peptidase IV (read-out: IC50) worked out at 2.4 µM. The Ratio IC50 in assay [3] amounted to 0.425.
With `N[C@@H](CC(=O)N1CCn2c(nnc2C(F)(F)F)C1)Cc1cc(F)c(F)cc1F` [SITAGLIPTIN], the inhibition is greater than 50% in assay [1] and less than 50% in assay [2]. Further, the half-inhibitory concentration (IC50) on Dipeptidyl peptidase IV (read-out: IC50) was 18 µM.
`CC1C[C@@H](C#N)N(C(=O)[C@@H](N)CC(=O)N2CCN(C(c3ccc(F)cc3)c3ccc(F)cc3)CC2)C1` (stereo partly drawn): the inhibition in assay [1] was greater than 50%; in assay [2], less than 50%. The IC50 entry on Dipeptidyl peptidase IV is given as “IC50 10-100 uM”.
Taken in the same sequence, the figures for `CCC(C)C(N)C(=O)N1CCC(N=[N+]=[N-])C1` (stereo not drawn) were greater than 50%, less than 50% and “IC50 10-100 uM”.
Consider `NC(CCCCN(Cc1ccc2ccccc2c1)Cc1ccc2ccccc2c1)C(=O)N1CCCC1` (stereo not drawn), for which the inhibition was greater than 50% in assay [1] and less than 50% in assay [2]. For the same molecule, at Dipeptidyl peptidase IV (read-out: IC50), the IC50 amounted to 3.5 µM. The Ratio IC50 in assay [3] is 1.2.
Taken in the same sequence, the figures for `CCC(C)C(N)C(=O)N1CCCC1` (stereo not drawn) were greater than 50%, less than 50%, 22 µM and 0.18.
As for `Cc1ccc(S(=O)(=O)NCCCCC(N)C(=O)N2CCCC2)cc1` (stereo not drawn), the inhibition in assay [1] was greater than 50%; in assay [2], less than 50%. The IC50 entry against Dipeptidyl peptidase IV was “IC50 10-100 uM”.
On to `NC(CCCCNC(=O)c1ccccc1)C(=O)N1CCCC1` (stereo not drawn), for which the inhibition in assay [1] was greater than 50%; in assay [2] it was less than 50%. Further, the IC50 result against Dipeptidyl peptidase IV is listed as “IC50 10-100 uM”.
Consider `CC[C@H](C)[C@H](N)C(=O)N1C[C@@H](N=[N+]=[N-])C[C@H]1C#N`, for which the results for the inhibition in assay [1] and in assay [2] were greater than 50% and less than 50%, respectively. Besides, the half-maximal inhibitory concentration (IC50) on Dipeptidyl peptidase IV (read-out: IC50) is 0.31 µM. In addition, in assay [3], the Ratio IC50 amounted to 1.1.
For `NCCCCC(N)C(=O)N1Cc2ccccc2C1` (stereo not drawn), the inhibition was greater than 50% in assay [1] and less than 50% in assay [2]. Besides, the IC50 result against Dipeptidyl peptidase IV is recorded as “IC50 10-100 uM”.
With `CC#CCn1c(N2CCNCC2)nc2c1c(=O)n(Cc1nc(C)c3ccccc3n1)c(=O)n2C`, the inhibition in assay [1] is greater than 50%; in assay [2], less than 50%. The IC50 entry on Dipeptidyl peptidase IV is recorded as “IC50 10-100 uM”. Also, in assay [3], the Ratio IC50 is less than 0.002.
Regarding `CCC(C)C(N)C(=O)N1CC=CCC1` (stereo not drawn), the inhibition is greater than 50% in assay [1] and less than 50% in assay [2]. For the same molecule, the IC50 entry against Dipeptidyl peptidase IV was “IC50 10-100 uM”.
Take `CC[C@H](C)[C@H](N)C(=O)N1CCSC1`: in assay [1], the inhibition was greater than 50%. Further, the IC50 on Dipeptidyl peptidase IV (read-out: IC50) came out at 19 µM.
Regarding `CC(O)C(N)C(=O)N1CCCC1` (stereo not drawn), the inhibition in assay [1] is greater than 50%; in assay [2] it was less than 50%. In addition, on Dipeptidyl peptidase IV (read-out: IC50), the 50% inhibitory concentration (IC50) was found to be 100 µM.
Regarding `NC(CCCCNC(=O)Oc1ccccc1)C(=O)N1CCCC1` (stereo not drawn), the inhibition is greater than 50% in assay [1] and less than 50% in assay [2]. At Dipeptidyl peptidase IV, the IC50 result is “IC50 10-100 uM”.
Take `CC[C@H](C)[C@H](N)C(=O)N1CCCC1`: the inhibition in assay [1] was greater than 50%; in assay [2], less than 50%. Also, the IC50 entry on Dipeptidyl peptidase IV was “IC50 10-100 uM”.
In the same order, the values of `CC[C@@H](C)[C@H](N)C(=O)N1C[C@H](N=[N+]=[N-])C[C@H]1C#N` are greater than 50%, less than 50% and “IC50 10-100 uM”.
As to `CCC(C)C(N)C(=O)N1Cc2ccc(F)cc2C1` (stereo not drawn), the inhibition in assay [1] was greater than 50%; in assay [2], less than 50%. The IC50 result against Dipeptidyl peptidase IV is “IC50 10-100 uM”.
Turning to `CS(=O)(=O)NCCCCC(N)C(=O)N1CCCC1` (stereo not drawn), the values for the inhibition in assay [1] and in assay [2] were greater than 50% and less than 50%, respectively. Besides, the IC50 result on Dipeptidyl peptidase IV was “IC50 10-100 uM”.
In the same order, the values of `NC(CCCNC(=O)OCc1ccccc1)C(=O)N1CCCC1` (stereo not drawn) are greater than 50%, less than 50% and “IC50 10-100 uM”.
`CC[C@@H](C)[C@H](N)C(=O)N1Cc2ccccc2C1` yielded an inhibition in assay [1] greater than 50%. Besides, at Dipeptidyl peptidase IV, the IC50 result is “IC50 10-100 uM”.
For the molecule `CCCCC(N)C(=O)N1CCCC1` (stereo not drawn), the inhibition in assay [1] is greater than 50%; in assay [2], less than 50%. For the same molecule, on Dipeptidyl peptidase IV, the IC50 entry was “IC50 10-100 uM”.
Consider `CC(C)C(N)C(=O)N1CCCC1` (stereo not drawn), for which the inhibition is greater than 50% in assay [1] and less than 50% in assay [2]. Besides, the IC50 on Dipeptidyl peptidase IV (read-out: IC50) stood at 19 µM.
On to `CC(=O)NCCCCC(N)C(=O)N1CCCC1` (stereo not drawn), for which the inhibition in assay [1] is greater than 50%; in assay [2], less than 50%. The IC50 result at Dipeptidyl peptidase IV is listed as “IC50 10-100 uM”.
Taken in the same sequence, the figures for `C=C1CCN(C(=O)C(N)CC(=O)N2CCN(C(c3ccc(F)cc3)c3ccc(F)cc3)CC2)C1` (stereo not drawn) were greater than 50%, less than 50% and “IC50 10-100 uM”.
Taken in the same sequence, the figures for `O=C(C1CC(NCc2ccc3ccccc3c2)CN1)N1Cc2ccccc2C1` (stereo not drawn) were greater than 50%, less than 50% and “IC50 10-100 uM”.
Taken in the same sequence, the figures for `CCC(C)C(N)C(=O)N1CCC(Cl)C1` (stereo not drawn) were greater than 50%, less than 50% and “IC50 10-100 uM”.
Consider `NCCNC(=O)CCC(N)Cc1ccccc1` (stereo not drawn), for which the inhibition in assay [1] is greater than 50%; in assay [2] it was less than 50%. In addition, the concentration for half-maximal inhibition (IC50) entry against Dipeptidyl peptidase IV is recorded as “IC50 10-100 uM”.
Taken in the same sequence, the figures for `CCC(C)C(N)C(=O)N1Cc2ccccc2C1` (stereo not drawn) were greater than 50%, less than 50% and “IC50 10-100 uM”.
For `NC(CC(=O)N1CCN(C(c2ccc(F)cc2)c2ccc(F)cc2)CC1)C(=O)N1CCC(C(F)(F)F)C1` (stereo not drawn), the inhibition in assay [1] was greater than 50%; in assay [2], less than 50%. At Dipeptidyl peptidase IV, the IC50 result is given as “IC50 10-100 uM”.
In the same order, the values of `C=C1CC(C)N(C(=O)C(N)CCC(=O)N2CCN(C(c3ccc(F)cc3)c3ccc(F)cc3)CC2)C1` (stereo not drawn) are greater than 50%, less than 50% and “IC50 10-100 uM”.
In the case of `CCC(C)C(N)C(=O)N1CC=CC1` (stereo not drawn), the inhibition in assay [1] is greater than 50%; in assay [2], less than 50%. Besides, the IC50 entry on Dipeptidyl peptidase IV is listed as “IC50 10-100 uM”.
Taken in the same sequence, the figures for `NC(CCCCNCc1ccc2ccccc2c1)C(=O)N1Cc2ccccc2C1` (stereo not drawn) were greater than 50%, less than 50% and “IC50 10-100 uM”.
In the same order, the values of `CC1CCN(C(=O)C(N)CC(=O)N2CCN(C(c3ccc(F)cc3)c3ccc(F)cc3)CC2)C1` (stereo not drawn) are greater than 50%, less than 50% and “IC50 10-100 uM”.
Regarding `N#CC1CC(N=[N+]=[N-])CN1C(=O)C(N)CCCCN(Cc1ccc2ccccc2c1)Cc1ccc2ccccc2c1` (stereo not drawn), the inhibition in assay [1] was greater than 50%; in assay [2] it was less than 50%. At Dipeptidyl peptidase IV (read-out: IC50), the IC50 stood at 0.58 µM.
Take `NC(CC(=O)N1CCN(C(c2ccc(F)cc2)c2ccc(F)cc2)CC1)C(=O)N1Cc2ccccc2C1` (stereo not drawn): the inhibition was greater than 50% in assay [1] and less than 50% in assay [2]. Also, the IC50 entry against Dipeptidyl peptidase IV is “IC50 10-100 uM”.
`N=C(N)NCCCC(N)C(=O)N1CCCC1` (stereo not drawn): the inhibition is greater than 50% in assay [1] and less than 50% in assay [2]. Moreover, the IC50 result at Dipeptidyl peptidase IV was “IC50 10-100 uM”.
Taken in the same sequence, the figures for `NC(CC(=O)N1CCN(C(c2ccccc2)c2ccc(Cl)cc2)CC1)C(=O)N1Cc2ccccc2C1` (stereo not drawn) were greater than 50%, less than 50% and “IC50 10-100 uM”.
In assay [1], `CC(C)[C@H](N)C(=O)N1CCCC1` showed an inhibition greater than 50%. Moreover, at Dipeptidyl peptidase IV (read-out: IC50), the IC50 worked out at 29 µM.
`CCC(C)C(N)C(=O)N1CCC(C)C1` (stereo not drawn): the inhibition was greater than 50% in assay [1] and less than 50% in assay [2]. The IC50 result on Dipeptidyl peptidase IV is recorded as “IC50 10-100 uM”.
As to `NC(CCCCNC(=O)Nc1ccccc1)C(=O)N1CCCC1` (stereo not drawn), the figures for the inhibition in assay [1] and in assay [2] were greater than 50% and less than 50%, respectively. Further, the concentration for half-maximal inhibition (IC50) entry at Dipeptidyl peptidase IV is on record as “IC50 10-100 uM”.
In the same order, the values of `CC[C@H](C)[C@H](N)C(=O)N1CCC(F)C1` (stereo partly drawn) are greater than 50%, less than 50% and “IC50 10-100 uM”.
Taken in the same sequence, the figures for `N#CC1CC(N=[N+]=[N-])CN1C(=O)C1CC(NCc2ccc3ccccc3c2)CN1` (stereo not drawn) were greater than 50%, less than 50% and “IC50 10-100 uM”.
For the molecule `N[C@@H](CC(=O)N1CCN(C(c2ccc(F)cc2)c2ccc(F)cc2)CC1)C(=O)N1CCCCC1`, the inhibition in assay [1] was greater than 50%; in assay [2], less than 50%. Also, on Dipeptidyl peptidase IV, the IC50 result is recorded as “IC50 10-100 uM”.
For the molecule `NC(CCCCN(Cc1ccccc1)Cc1ccccc1)C(=O)N1Cc2ccccc2C1` (stereo not drawn), the inhibition is greater than 50% in assay [1] and less than 50% in assay [2]. At Dipeptidyl peptidase IV, the IC50 result is “IC50 10-100 uM”.
As to `CC(C)[C@H](N)C(=O)N1CCCC1B(O)O` (stereo partly drawn), the inhibition in assay [1] is greater than 50%; in assay [2] it was less than 50%. Besides, the IC50 on Dipeptidyl peptidase IV (read-out: IC50) came to 0.14 µM.
With `CC[C@@H](C)[C@@H](N)C(=O)N1CCC(C#N)C1` (stereo partly drawn), the inhibition in assay [1] is greater than 50%; in assay [2], less than 50%. The IC50 result against Dipeptidyl peptidase IV is “IC50 10-100 uM”.
Taken in the same sequence, the figures for `CN(CCCCC(N)C(=O)N1CCCC1)Cc1ccccc1` (stereo not drawn) were greater than 50%, less than 50% and “IC50 10-100 uM”.
Regarding `NC(CCCNC(=NC(=O)OCc1ccccc1)NC(=O)OCc1ccccc1)C(=O)N1CCCC1` (stereo not drawn), the inhibition in assay [1] was greater than 50%; in assay [2], less than 50%. Besides, the IC50 entry at Dipeptidyl peptidase IV is recorded as “IC50 10-100 uM”.
Taken in the same sequence, the figures for `NC(C(=O)N1Cc2ccccc2C1)C1CCCCC1` (stereo not drawn) were greater than 50%, less than 50% and “IC50 10-100 uM”.
In the same order, the values of `CCC(C)C(N)C(=O)N1CCSC1` (stereo not drawn) are greater than 50%, less than 50% and “IC50 10-100 uM”.
